Laboratory results from PMC11143257, “Atomistic mechanism of coupling between cytosolic sensor domain and selectivity filter in TREK K2P channels” (Nature Communications, 2024).
Numbering of substitutions follows the chain as printed.

How the values were obtained:
[1] = target: T1, TREK-2* (Homo sapiens, UniProt P57789); assay: Activation of truncated construct; format: cell-based; set-up: was truncated from WT and includes amino acids 67 - 355; expressed in transfected cells; host or cells: Xenopus laevis oocytes (cRNA injection, pFAW vector); settings: comparable to WT, peer review file
T1 sequence (P57789 67-355 isoform P57789-4): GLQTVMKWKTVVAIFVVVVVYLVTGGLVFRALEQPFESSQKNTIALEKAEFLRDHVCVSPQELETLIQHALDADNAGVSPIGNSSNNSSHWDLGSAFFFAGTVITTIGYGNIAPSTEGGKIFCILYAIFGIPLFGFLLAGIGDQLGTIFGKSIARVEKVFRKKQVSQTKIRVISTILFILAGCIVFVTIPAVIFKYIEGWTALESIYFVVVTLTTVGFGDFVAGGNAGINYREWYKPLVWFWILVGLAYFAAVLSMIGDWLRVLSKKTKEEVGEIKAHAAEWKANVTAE
Description: page 27: Answer: We agree with the reviewer that applying statistical tests to our simulation data would enhance the confidence in interpreting some of the results. However, in this study, due to the relatively large size of the systems that require extensive simulation time, we were limited to conducting only five to seven independent simulation runs for each setup. According to the checklist and recommendations provided by Nature Journal (PMID: 36918708), a minimum of three simulations per condition is advisable. Given that we only have data from these limited simulation runs, conducting a p-test is challenging. Nonetheless, as we noted in the main text, in all 5 simulations of the down-state, we observed a robust conformational change at the S1 binding site. Conversely, in all five up-state simulations, the SF remained a conductive conformation. […] Minor comments: Are there any differences in function between full-length TREK-2 and the TREK-2* construct? […] 22

[2] = test system: WT hTREK-2; assay: Direct application of PKC inhibitor, oocytes; format: cell-based, human; settings: oocytes expressing WT hTREK-2
Description: This study by Türkaydin and colleagues combines functional studies of TREK channels with MD simulations and proposes an explanation for the molecular mechanism of phosphorylation-mediated regulation of channel activity, and a general framework for how down-to-up transitions of TM4 is coupled to activation of the SF gate. Using elegant MTS-modification, phospho-mimetic mutagenesis, and norfluoxetine sensitivity experiment - and […]
TM4 increases channel opening which is a plausible explanation for the inverse inhibitory effect of phosphorylation of the extended M4 helix.
The molecular dynamics approaches are mostly outside of my expertise and so I cannot comment on the technical elements. However, the interaction network analysis supports previous models that upwards movement of TM4 is associated with opening of the SF gate and highlights previously identified and potential novel residues responsible. […]
results provide interesting advances which improve our understanding of TREK channel […]
We thank the reviewer for the positive evaluation of our work and the many helpful comments to improve the manuscript. The reviewer specific comments are addressed below:
- and this is an excellent opportunity to clarify some important outstanding questions in the […]
state. This is an interesting and important finding, which would help to explain TREK channel regulation in vivo. […]

[3] = test system: hTREK-1; assay: Direct application of PKC inhibitor, HEK293 whole-cell; format: cell-based, human; settings: 1.0 µM; HEK293 cells, whole-cell configuration; within 30 min; n = 6
Protocol: Further, we also tested the direct application of 1.0 µM of the PKC inhibitor BIM I to HEK293 cells (in whole-cell configuration) expressing hTREK-1. Similarly, under these conditions, TREK-1 channel currents were not altered within 30 min. (n = 6). Thus, it appears that under […]
of the PKC site. Unfortunately, it is not known which phosphatase mediates the dephosphorylation of the PKC site in TREK channels nor are pharmacological phosphatase activators known that could be used promote the dephosphorylation.
The interaction network analysis provides possible explanations for how TM4 movement is transduced to SF gate opening. As mentioned, this analysis highlights a number of residues […]
W326, R237 in Dong et al., 2015). The authors are well placed to determine whether mutation of these residues, in silico, destabilizes the down-state and to show how this might promote stabilization of the conductive SF. […]
through interaction network analysis and previous mutation studies, can aid in studying the conformational change from down- to up-state in the channel and how this is related to the conformational change in the SF. However, the timescale for the conformational movement in […]
2 channels. In only 3 out of 7 simulations, each lasting 3 μs, did we observe a complete transition from up to down. […]
well-suited for assessing the impact of mutations. […]

[4] = target: T2, TREK-1 V322C (Homo sapiens, UniProt O95069, V322C); assay: MTS probe modification, inside-out patch-clamp; format: cell-based; settings: MTS-ET+ 1 mM, symmetrical K+, -80 mV (Supplementary Fig. 2d)
T2 construct: expressed in transfected cells; host or cells: Xenopus laevis oocytes (cRNA injection), excised inside-out patches
T2 sequence (O95069 1-426 V322C): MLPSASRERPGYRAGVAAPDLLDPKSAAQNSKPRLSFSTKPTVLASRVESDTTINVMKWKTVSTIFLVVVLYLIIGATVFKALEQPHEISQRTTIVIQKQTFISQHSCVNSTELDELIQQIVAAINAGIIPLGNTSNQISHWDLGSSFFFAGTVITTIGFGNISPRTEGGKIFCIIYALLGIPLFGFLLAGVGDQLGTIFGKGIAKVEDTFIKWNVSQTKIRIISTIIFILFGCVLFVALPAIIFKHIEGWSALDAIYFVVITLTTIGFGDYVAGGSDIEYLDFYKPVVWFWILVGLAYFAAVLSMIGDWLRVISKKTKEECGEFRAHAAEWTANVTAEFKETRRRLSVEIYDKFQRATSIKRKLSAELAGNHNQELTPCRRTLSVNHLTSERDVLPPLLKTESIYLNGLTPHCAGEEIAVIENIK
Protocol: (§1) First, we measured WT TREK-1, WT TRAAK and TREK-2^* channels without modifiable cysteine residues as references. […] Note, that patch integrity and channel regulation were tested with either 1 mM tetra-pentyl-ammonium (TPenA) and a short pHi activation step. Next, we conducted systematic cysteine scanning mutagenesis of the entire pCt and examined the effect of charged and aliphatic MTS probes.
(§2) Xenopus laevis oocytes were surgically removed from anesthetized adult females, treated with type II collagenase (Sigma-Aldrich/Merck, Germany) and manually defolliculated. A solution containing the K^+ channel-specific cRNA at a desired concentration was injected into Dumont stage V - VI oocytes and subsequently incubated at 17 °C in a solution containing (mM): 54 NaCl, […], 2.4 NaHCO3, 0.82 MgSO4 x 7 H2O, 0.41 CaCl2, 0.33 Ca(NO3)2 x 4 H2O and 7.5 TRIS (pH 7.4 adjusted with NaOH/HCl) for 1 - 7 days before use. Patch-clamp recordings in an inside-out configuration under voltage-clamp conditions were performed at room temperature (22 - 24 °C). Patch pipettes were made from thick-walled borosilicate glass GB 200TF-8P (Science Products, Germany), had resistances of 0.2 - 0.5 MΩ (tip diameter of 10 - 25 µm) and filled with a pipette solution (in mM): 120 KCl, 10 HEPES and 3.6 CaCl2 (pH 7.4 adjusted with KOH/HCl). Intracellular bath solutions and compounds were applied to the cytoplasmic side of excised patches for the various K^+ channels via a gravity flow multi-barrel pipette system. The intracellular solution had the following composition (in mM): 120 KCl, 10 HEPES, 2 EGTA, and 1 Pyrophosphate (pH adjusted with KOH/HCl). Currents were recorded with an EPC10 amplifier (HEKA electronics, Germany) and sampled at 10 kHz or higher and filtered with 3 kHz (-3 dB) or higher as appropriate for the sampling rate.
(§3) Tetra-pentyl-ammonium chloride (TPenA) was purchased from Merck (Sigma-Aldrich), prepared as 100 mM stocks in intracellular recording solution, stored at −20 °C and diluted to a final concentration in intracellular recording solution before measurements. Decyl-MethaneThioSulfonate (Decyl-MTS), (2-(trimethylammonium)ethyl)MethaneThioSulfonate bromide (MTS-ET^+) and Sodium (2-sulfonatoethyl)MethaneThioSulfonate (MTS-ES^-) were purchased from Toronto Research Chemicals. MTS-ET^+ was directly dissolved to the desired concentration of 1 mM in the intracellular recording solution before each experiment. MTS-ET^+ was used immediately after dilution for maximally 5 min. Decyl-MTS and […] were prepared as 10 - 100 mM stocks in DMSO and diluted to the desired concentration before the measurements.
(§4) The fold current increase (fold activation) of a ligand (decyl-MTS) was calculated from the following equation:1 FoldactivationFA=Iactivated/Ibasal with Iactivated represents the stable current level in the presence of 100 µM decyl-MTS and Ibasal the measured current before application of the MTS probe.

[5] = target: T3, TREK-1 F325C (Homo sapiens, UniProt O95069, F325C); assay: MTS probe modification, inside-out patch-clamp; format: cell-based; settings: MTS-ET+ 1 mM, symmetrical K+, -80 mV (Supplementary Fig. 2d)
T3 construct: expressed in transfected cells; host or cells: Xenopus laevis oocytes (cRNA injection), excised inside-out patches
T3 sequence (O95069 1-426 F325C): T2 sequence (O95069 1-426 V322C) with C322V, F325C
Protocol: as §1, §2, §3, §4

[6] = target: T4, TREK-1 T318C (Homo sapiens, UniProt O95069, T318C); assay: MTS probe modification, inside-out patch-clamp; format: cell-based; settings: MTS-ET+ 1 mM, symmetrical K+, -80 mV (Supplementary Fig. 2d)
T4 construct: expressed in transfected cells; host or cells: Xenopus laevis oocytes (cRNA injection), excised inside-out patches
T4 sequence (O95069 1-426 T318C): T2 sequence (O95069 1-426 V322C) with T318C, C322V
Protocol: as §1, §2, §3, §4

Molecule: CCCCC/C=C\C/C=C\C/C=C\C/C=C\CCCC(=O)O [arachidonic acid]
- activation [1]: activated

Molecule: CN(C)CCCn1cc(C2=C(c3c[nH]c4ccccc34)C(=O)NC2=O)c2ccccc21 [BIM I, Bisindolylmaleimide I]
- effect on current [2]: did not observe a current increase
- effect on TREK-1 channel currents [3]: not altered

Molecule: (2-(trimethylammonium)ethyl)MethaneThioSulfonate bromide [MTS-ET^+]
- effect of charged MTS probe on activity [4]: channel inhibition
- effect of charged MTS probe on activity [5]: channel inhibition
- effect of charged MTS probe on activity [6]: channel inhibition
